Measurements published in patent US11986540B2, “Compositions including pafolacianine for the identification of malignant lesions” (ON TARGET LABORATORIES, LLC., priority 2022, dated 2024).

How the values were obtained:
[1] = system: FR-positive KB cell tumor xenografts; assay: Whole body imaging and tissue distribution, FR-positive KB tumor xenografts; format: in vivo, mice; settings: compared with pafolacianine
Experimental: Whole body imaging and tissue distribution of pafolacianine and OTL0039 was performed in female nu/nu mice bearing FR-positive KB cell tumor xenografts. […] This observation was consistent with the lower binding affinity of the D-isomer for FR compared with the L-isomer. Tumor fluorescence was brighter in mice receiving pafolacianine compared with other folate-conjugated near infrared dyes such as LS288, IR800 and ZW800.
The optimal dose range for pafolacianine with respect to tumor-to-background ratio in FR-positive tumor-bearing mice was 1 to 30 nmol/mouse, with lower fluorescence intensity observed in tumors at a lower dose (0.3 nmol) and higher fluorescence intensity observed in other tissues at doses above 30 nmol. In a second experiment, pafolacianine whole body imaging and tissue distribution was examined again; however, this experiment was performed in female nu/nu mice bearing FR-negative A549 cell tumor xenografts.

[2] = system: cytochrome P450 (CYP) enzymes; assay: Metabolism by CYP enzymes; format: in vitro ADME
[3] = Excretion after single IV infusion of radiolabeled pafolacianine sodium; format: in vivo; settings: after approximately 3-5 weeks

CC1(C)C(=CC=C2CCCC(C=CC3=[N+](CCCCS(=O)(=O)[O-])c4ccc(S(=O)(=O)O)cc4C3(C)C)=C2Oc2ccc(C[C@@H](NC(=O)c3ccc(NCc4cnc5nc(N)[nH]c(=O)c5n4)cc3)C(=O)O)cc2)N(CCCCS(=O)(=O)O)c2ccc(S(=O)(=O)O)cc21 [OTL0039, reference compound]
fluorescence signal intensity in tumors and kidneys [1]: weaker fluorescence signal intensity than pafolacianine

CC1(C)C(/C=C/C2=C(Oc3ccc(C[C@H](NC(=O)c4ccc(NCc5cnc6nc(N)[nH]c(=O)c6n5)cc4)C(=O)[O-])cc3)C(=C/C=C3/N(CCCCS(=O)(=O)[O-])c4ccc(S(=O)(=O)[O-])cc4C3(C)C)/CCC2)=[N+](CCCCS(=O)(=O)[O-])c2ccc(S(=O)(=O)[O-])cc21.O.[Na+].[Na+].[Na+].[Na+] [pafolacianine sodium, (S)-2-(4-(((2-amino-4-oxo-3,4-dihydropteridin-6-yl)methyl)amino)benzamido)-3-(4-(((E)-2-((E)-2-(3,3-dimethyl-5-sulfonato-1-(4-sulfonatobutyl)-3H-indol-1-ium-2-yl)vinyl)-6-((E)-2-(3,3-dimethyl-5-sulfonato-1-(4-sulfonatobutyl)indolin-2-ylidene)ethylidene)cyclohex-1-en-1-1)oxy)phenyl)propanoate hydrate tetrasodium]
metabolism by cytochrome P450 (CYP) enzymes [2]: not metabolized | dose recovered in feces [3]: 15.8% | dose recovered in urine [3]: 19.1% | dose recovered in urine and feces [3]: approximately 35%
